Measured values reported in patent US9994913B2, “Methods and compositions for detecting and treating drug resistant AKT mutant” (Genentech, Inc., priority 2013, dated 2018).
“Also recorded” adds a separate entry of the source.

Key:
Type in all cases: cell-based
[1] = system: LNCaP cells; assay: Dose response of AKT inhibitors in parental and AKT-inhibitor-resistant LNCaP cells (FIGS. 1-2, 6)
Description: Resistant clones to both inhibitors were derived from populations of cancer cells treated with increasing doses of AKT inhibitor over time. […] For MK2206, cells that are ˜40× less sensitive were cloned.
(§1) The in vitro potency of the combinations of the compound of Example 2 with certain specific chemotherapeutic agents was measured using the CellTiterGlo® Luminescent Cell Viability Assay, commercially available from Promega Corp., Madison, Wis. This homogeneous assay method is based on the recombinant expression of Coleoptera luciferase (U.S. Pat. Nos. 5,583,024; 5,674,713; 5,700,670) and determines the number of viable cells in culture based on quantitation of the ATP present, an indicator of metabolically active cells (Crouch et al (1993) J. Immunol. Meth. 160:81-88; U.S. Pat. No. 6,602,677). The CellTiter-Glo® Assay was conducted in 96 or 384 well format, making it amenable to automated high-throughput screening (HTS) (Cree et al (1995) AntiCancer Drugs 6:398-404). The homogeneous assay procedure involves adding the single reagent (CellTiter-Glo® Reagent) directly to cells cultured in serum-supplemented medium. Cell washing, removal of medium and multiple pipetting steps are not required. The system detects as few as 15 cells/well in a 384-well format in 10 minutes after adding reagent and mixing.
The homogeneous “add-mix-measure” format results in cell lysis and generation of a luminescent signal proportional to the amount of ATP present. The amount of ATP is directly proportional to the number of cells present in culture. The CellTiterGlo® Assay generates a “glow-type” luminescent signal, produced by the luciferase reaction, which has a half-life generally greater than five hours, depending on cell type and medium used. Viable cells are reflected in relative luminescence units (RLU). […] Data can be recorded by luminometer or CCD camera imaging device. The luminescence output is presented as relative light units (RLU), measured over time.

[2] = system: IGROV1 cells; assay: Treatment of parental and AKT-inhibitor-resistant IGROV1 ovarian cancer cells (FIGS. 7-9); settings: for potency in parental and resistant lines: all IGROV1 lines, FIG. 9
Description: as §1
The homogeneous “add-mix-measure” format results in cell lysis and generation of a luminescent signal proportional to the amount of ATP present. The amount of ATP is directly proportional to the number of cells present in culture. The CellTiterGlo® Assay generates a “glow-type” luminescent signal, produced by the luciferase reaction, which has a half-life generally greater than five hours, depending on cell type and medium used. Viable cells are reflected in relative luminescence units (RLU). The substrate, Beetle Luciferin, is oxidatively decarboxylated by recombinant firefly luciferase with concomitant conversion of ATP to AMP and generation of photons. The extended half-life eliminates the need to use reagent injectors and provides flexibility for continuous or batch mode processing of multiple plates. This cell proliferation assay can be used with various multiwell formats, e.g. 96 or 384 well format. Data can be recorded by luminometer or CCD camera imaging device. The luminescence output is presented as relative light units (RLU), measured over time.

[3] = system: pS6; assay: Western blot of AKT inhibitor dosed LNCaP cells, downstream pS6 (FIGS. 3-4)
Text: (§2) FIGS. 3-4 show Western blot analysis of AKT inhibitor dosed to cancer cells (LNCaP cells).

[4] = system: Akt; assay: Western blot of AKT inhibitor dosed LNCaP cells, Akt phosphorylation and inhibitor binding (FIGS. 3-4); settings: MK2206 resistant LNCaP cells vs parental lines
Text: as §2

CC(C)NC[C@@H](C(=O)N1CCN(c2ncnc3c2[C@H](C)C[C@H]3O)CC1)c1ccc(Cl)cc1 [GDC-0068, (S)-2-(4-chlorophenyl)-1-(4-((5R,7R)-7-hydroxy-5-methyl-6,7-dihydro-5H-cyclopenta [d]pyrimidin-4-yl)piperazin-1-yl)-3-(isopropylamino)propan-1-one]
sensitivity of MK2206-resistant cells to the inhibitor ([1]; MK2206-resistant LNCaP cells, FIG. 6): still sensitive; also recorded: remain sensitvie | resistance of GDC0068-resistant cells to the inhibitor ([2]; IGROV1 cells resistant to GDC0068, GDC-0068 compared with MK2206): more resistant to GDC-0068 than MK2206 | inhibition of downstream pS6 ([3]; GDC-0068 resistant LNCaP cells): less potent

Cc1c(CN2CCN(C(=O)[C@H](C)O)CC2)sc2c(N3CCOCC3)nc(-c3cnc(N)nc3)nc12 [GDC-0980]
potency in parental and resistant lines [2]: remain potent

NC1(c2ccc(-c3nc4ccn5c(=O)[nH]nc5c4cc3-c3ccccc3)cc2)CCC1 [MK2206, 8-[4-(1-aminocyclobutyl)phenyl]-9-phenyl-1,2,4-triazolo[3,4-f][1,6]naphthyridin-3(2H)-one]
inhibition of Akt phosphorylation [4]: failed to inhibit Akt phosphorylation | resistance of GDC-0068 selected cells to the inhibitor ([1]; GDC-0068 selected LNCaP cells, FIG. 6): similarly resistant | fold less sensitive to MK2206, resistant clones vs parental ([1]; LNCaP clones derived under increasing doses of MK2206): ~40 × | resistance to allosteric inhibition ([2]; IGROV1 cells resistant to GDC0068 and cells resistant to MK2206): equally resistant | inhibition of pS6 ([3]; MK2206 resistant LNCaP cells): lost the inhibition of pS6

CS(=O)(=O)N1CCN(Cc2cc3nc(-c4cccc5[nH]ncc45)nc(N4CCOCC4)c3s2)CC1 [GDC-0941]
potency in parental and resistant lines [2]: remain potent
